From article PMC3434217, “Specificity Determinants of the Silkworm Moth Sex Pheromone” (PLoS ONE, 2012) come the findings set out here.

Assay type in all cases: cell-based
For experiment [1], the target named is T1, BmorOR1 (Bombyx mori, UniProt Q5WA61).
T1 construct: gene BmOR-1; full-length; with BmorOrco
T1 sequence (Q5WA61 1-430): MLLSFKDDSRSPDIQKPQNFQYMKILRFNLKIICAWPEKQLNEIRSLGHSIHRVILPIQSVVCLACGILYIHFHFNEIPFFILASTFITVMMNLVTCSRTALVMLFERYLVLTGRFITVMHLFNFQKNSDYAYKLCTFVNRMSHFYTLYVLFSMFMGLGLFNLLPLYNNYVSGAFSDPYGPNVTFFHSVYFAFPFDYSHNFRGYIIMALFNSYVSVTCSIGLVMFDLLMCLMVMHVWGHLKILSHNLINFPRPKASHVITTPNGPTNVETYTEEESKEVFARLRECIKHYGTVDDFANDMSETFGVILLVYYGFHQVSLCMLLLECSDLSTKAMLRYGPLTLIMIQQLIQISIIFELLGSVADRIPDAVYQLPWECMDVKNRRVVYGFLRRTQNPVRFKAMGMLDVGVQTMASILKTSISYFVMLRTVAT
T1 sequence (Q7YT34 1-472 partner): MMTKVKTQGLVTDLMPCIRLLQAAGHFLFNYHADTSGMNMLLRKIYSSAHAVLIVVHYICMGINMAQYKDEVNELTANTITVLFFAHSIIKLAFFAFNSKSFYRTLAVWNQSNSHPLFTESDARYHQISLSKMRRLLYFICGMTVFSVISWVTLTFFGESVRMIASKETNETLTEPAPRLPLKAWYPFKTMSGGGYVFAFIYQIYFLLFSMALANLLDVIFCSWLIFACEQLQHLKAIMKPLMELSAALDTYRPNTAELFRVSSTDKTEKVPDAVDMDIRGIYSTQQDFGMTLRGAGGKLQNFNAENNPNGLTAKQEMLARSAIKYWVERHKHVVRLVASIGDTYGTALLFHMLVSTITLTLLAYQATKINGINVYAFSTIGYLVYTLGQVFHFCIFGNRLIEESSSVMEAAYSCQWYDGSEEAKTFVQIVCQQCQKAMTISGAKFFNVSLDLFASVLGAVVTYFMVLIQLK
Nature of the experiment: two-electrode voltage clamp in Xenopus oocytes expressing BmorOR1 and BmorOrco (injection, source dose). In general terms: Two-electrode voltage clamp is typically applied to oocytes expressing channels or transporters.

Experiment [2] has as its target T1, BmorOR1. Nature of the experiment: two-electrode voltage clamp in Xenopus oocytes expressing BmorOR1 and BmorOrco (perfusion).
In experiment [3] the target is T1, BmorOR1. Nature of the experiment: two-electrode voltage clamp in Xenopus oocytes expressing BmorOR1 and BmorOrco, dose-response.

In turn, `CCC/C=C\C=C\CCCCCCCCC=O` [bombykal] had an EC50 on BmorOR1 [1] of 9.6 µM.

`CCC/C=C\C=C\CCCCCCCCCO` [compound 1, (10E,12Z)-hexadecadien-1-ol] yielded an EC50 on BmorOR1 [2] of 0.0454 µM.

In turn, `CCC/C=C\C=C\CCCCC#CCCCO` [compound 10] returned an EC50 on BmorOR1 [3] of 17 µM.

At BmorOR1 [3], `CCC/C=C\C=C\CCCC/C=C\CCCO` [compound 11, (4Z,10E,12Z)-hexadecatrien-1-ol] showed an EC50 of 13 µM.

By EC50 is commonly meant the concentration needed to bring the measured effect to its halfway point. Low values mean greater potency, high ones weaker potency.
